From patent US10640547B2, “Immunotherapy against melanoma and other cancers” (IMMATICS BIOTECHNOLOGIES GMBH, priority 2016, dated 2020)

Columns and labels:
[1] = biological target: HLA-A*02:01 (Homo sapiens, UniProt P04439, D140Y/D185E/D98H/E176V/E277Q/G131W/G231S/I119V/I121R/I166T/I218V/L300P/L318F/N151K/N90K/P208A/P217A/Q86G/Q94H/R138H/R169H/T345S); assay: MHC binding assay (UV-ligand exchange, β2m ELISA); settings: MHC class I binding score; binding to HLA-A*02:01 ranged by peptide exchange yield (UV-ligand exchange, β2m ELISA)
Outline: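 Exchange yield, UV-ligand exchange: 100-fold diluted samples on streptavidin plates, 1 h at 37 °C; HRP anti-β2m 1 h at 37 °C; TMB read at 450 nm.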

[2] = test system: CD8+ T cells; assay: In vitro immunogenicity: T-cell priming with artificial APCs loaded with peptide/MHC and anti-CD28, pMHC multimer readout; type: cell-based, human; settings: for Wells positive [%]: Table 10B, HLA-A*02 restricted peptides, percentage of positive wells among evaluable; for Donors (in vitro immunogenicity) / Wells (in vitro immunogenicity): Table 10A, HLA class I peptides
Source text: In order to obtain information regarding the immunogenicity of the TUMAPs of the present invention, the inventors performed investigations using an in vitro T-cell priming assay based on repeated stimulations of CD8+ T cells with artificial antigen presenting cells (aAPCs) loaded with peptide/MHC complexes and anti-CD28 antibody.
In order to perform in vitro stimulations by artificial antigen presenting cells loaded with peptide-MHC complex (pMHC) and anti-CD28 antibody, the inventors first isolated CD8+ T cells from fresh HLA-A*02 leukapheresis products via positive selection using CD8 microbeads (Miltenyi Biotec, Bergisch-Gladbach, Germany) of healthy donors obtained from the University clinics Mannheim, Germany, after informed consent.
PBMCs and isolated CD8+ lymphocytes were incubated in T-cell medium (TCM) until use consisting of RPMI-Glutamax (Invitrogen, Karlsruhe, Germany) supplemented with 10% heat inactivated human AB serum (PAN-Biotech, Aidenbach, Germany), 100 U/ml Penicillin/100 μg/ml Streptomycin (Cambrex, Cologne, Germany), 1 mM sodium pyruvate (CC Pro, Oberdorla, Germany), 20 μg/ml Gentamycin (Cambrex). 2.5 ng/ml IL-7 (PromoCell, Heidelberg, Germany) and 10 U/ml IL-2 (Novartis Pharma, Nürnberg, Germany) were also added to the TCM at this step.
Generation of pMHC/anti-CD28 coated beads, T-cell stimulations and readout was performed in a highly defined in vitro system using four different pMHC molecules per stimulation condition and 8 different pMHC molecules per readout condition.
The purified co-stimulatory mouse IgG2a anti human CD28 Ab 9.3 (Jung et al., 1987) was chemically biotinylated using Sulfo-N-hydroxysuccinimidobiotin as recommended by the manufacturer (Perbio, Bonn, Germany). Beads used were 5.6 μm diameter streptavidin coated polystyrene particles (Bangs Laboratories, Illinois, USA).
800.000 beads/200 μl were coated in 96-well plates in the presence of 4×12.5 ng different biotin-pMHC, washed and 600 ng biotin anti-CD28 were added subsequently in a volume of 200 μl. Stimulations were initiated in 96-well plates by co-incubating 1×10^6 CD8+ T cells with 2×10^5 washed coated beads in 200 μl TCM supplemented with 5 ng/ml IL-12 (PromoCell) for 3 days at 37° C. Half of the medium was then exchanged by fresh TCM supplemented with 80 U/ml IL-2 and incubating was continued for 4 days at 37° C. This stimulation cycle was performed for a total of three times. For the pMHC multimer readout using 8 different pMHC molecules per condition, a two-dimensional combinatorial coding approach was used as previously described (Andersen et al., 2012) with minor modifications encompassing coupling to 5 different fluorochromes. Finally, multimeric analyses were performed by staining the cells with Live/dead near IR dye (Invitrogen, Karlsruhe, Germany), CD8-FITC antibody clone SK1 (BD, Heidelberg, Germany) and fluorescent pMHC multimers. For analysis, a BD LSRII SORP cytometer equipped with appropriate lasers and filters was used. Peptide specific cells were calculated as percentage of total CD8+ cells. Evaluation of multimeric analysis was done using the FlowJo software (Tree Star, Oregon, USA). In vitro priming of specific multimer+CD8+ lymphocytes was detected by comparing to negative control stimulations.

3 (VLFKDPVSV; listed as Homo sapiens) [compound 3]
Peptide exchange [1]: ++++ (>75% = ++++)
Wells positive [%] [2]: + (<20% = +)

4 (KTWDQVPFSV; listed as Homo sapiens) [compound 4]
Peptide exchange [1]: ++++ (>75% = ++++)
Wells positive [%] [2]: + (<20% = +)

8 (SIIPYLLEA; listed as Homo sapiens) [compound 8]
Peptide exchange [1]: ++++ (>75% = ++++)
Wells positive [%] [2]: ++ (20%-49% = ++)

9 (SLAGLVLYV; listed as Homo sapiens) [compound 9]
Peptide exchange [1]: ++++ (>75% = ++++)
Wells positive [%] [2]: ++ (20%-49% = ++)

10 (KMTQYITEL; listed as Homo sapiens) [compound 10]
Peptide exchange [1]: ++++ (>75% = ++++)
Wells positive [%] [2]: ++ (20%-49% = ++)

11 (TLIELLLPKL; listed as Homo sapiens) [compound 11]
Peptide exchange [1]: ++++ (>75% = ++++)
Wells positive [%] [2]: + (<20% = +)

12 (RLDDKTTNV; listed as Homo sapiens) [compound 12]
Peptide exchange [1]: +++ (>50 = +++)
Wells positive [%] [2]: ++ (20%-49% = ++)

13 (IQSETTVTV; listed as Homo sapiens) [compound 13]
Peptide exchange [1]: ++++ (>75% = ++++)
Wells positive [%] [2]: ++ (20%-49% = ++)

238 (KLLDKPEQFL; listed as Homo sapiens) [compound 238]
Donors (in vitro immunogenicity) [2]: ++ (20%-49% = ++)
Wells (in vitro immunogenicity) [2]: + (<20% = +)

241 (RLYTKLLNEA; listed as Homo sapiens) [compound 241]
Donors (in vitro immunogenicity) [2]: ++++ (≥70% = ++++)
Wells (in vitro immunogenicity) [2]: +++ (50%-69% = +++)

243 (ALAGIVTNV; listed as Homo sapiens) [compound 243]
Donors (in vitro immunogenicity) [2]: ++++ (≥70% = ++++)
Wells (in vitro immunogenicity) [2]: + (<20% = +)

247 (ALLNAILHSA; listed as Homo sapiens) [compound 247]
Donors (in vitro immunogenicity) [2]: ++++ (≥70% = ++++)
Wells (in vitro immunogenicity) [2]: + (<20% = +)

248 (GLFAGLGGAGA; listed as Homo sapiens) [compound 248]
Donors (in vitro immunogenicity) [2]: ++++ (≥70% = ++++)
Wells (in vitro immunogenicity) [2]: + (<20% = +)

250 (RVLPPSALQSV; listed as Homo sapiens) [compound 250]
Donors (in vitro immunogenicity) [2]: +++ (50%-69% = +++)
Wells (in vitro immunogenicity) [2]: + (<20% = +)

252 (YLLDMPLWYL; listed as Homo sapiens) [compound 252]
Donors (in vitro immunogenicity) [2]: ++++ (≥70% = ++++)
Wells (in vitro immunogenicity) [2]: + (<20% = +)

254 (FLMKNSDLYGA; listed as Homo sapiens) [compound 254]
Donors (in vitro immunogenicity) [2]: ++++ (≥70% = ++++)
Wells (in vitro immunogenicity) [2]: + (<20% = +)

257 (VLLNEILEQV; listed as Homo sapiens) [compound 257]
Donors (in vitro immunogenicity) [2]: ++++ (≥70% = ++++)
Wells (in vitro immunogenicity) [2]: ++ (20%-49% = ++)

262 (KLAVALLAA; listed as Homo sapiens) [compound 262]
Donors (in vitro immunogenicity) [2]: ++ (20%-49% = ++)
Wells (in vitro immunogenicity) [2]: ++ (20%-49% = ++)

264 (KVFDEVIEV; listed as Homo sapiens) [compound 264]
Donors (in vitro immunogenicity) [2]: + (<20% = +)
Wells (in vitro immunogenicity) [2]: + (<20% = +)

267 (LLTDNVVKL; listed as Homo sapiens) [compound 267]
Donors (in vitro immunogenicity) [2]: ++++ (≥70% = ++++)
Wells (in vitro immunogenicity) [2]: + (<20% = +)

269 (ALNESLVEC; listed as Homo sapiens) [compound 269]
Donors (in vitro immunogenicity) [2]: ++++ (≥70% = ++++)
Wells (in vitro immunogenicity) [2]: + (<20% = +)

271 (SLVQRVETI; listed as Homo sapiens) [compound 271]
Donors (in vitro immunogenicity) [2]: ++ (20%-49% = ++)
Wells (in vitro immunogenicity) [2]: + (<20% = +)

277 (KTASINQNV; listed as Homo sapiens) [compound 277]
Donors (in vitro immunogenicity) [2]: ++++ (≥70% = ++++)
Wells (in vitro immunogenicity) [2]: +++ (50%-69% = +++)

278 (SLITGQDLLSV; listed as Homo sapiens) [compound 278]
Donors (in vitro immunogenicity) [2]: ++++ (≥70% = ++++)
Wells (in vitro immunogenicity) [2]: + (<20% = +)

283 (YTFSGDVQL; listed as Homo sapiens) [compound 283]
Donors (in vitro immunogenicity) [2]: ++++ (≥70% = ++++)
Wells (in vitro immunogenicity) [2]: + (<20% = +)

287 (KISDFGLATV; listed as Homo sapiens) [compound 287]
Donors (in vitro immunogenicity) [2]: ++++ (≥70% = ++++)
Wells (in vitro immunogenicity) [2]: ++ (20%-49% = ++)

292 (ALGDKFLLRV; listed as Homo sapiens) [compound 292]
Donors (in vitro immunogenicity) [2]: ++++ (≥70% = ++++)
Wells (in vitro immunogenicity) [2]: + (<20% = +)

294 (FLLAEDTKV; listed as Homo sapiens) [compound 294]
Donors (in vitro immunogenicity) [2]: ++++ (≥70% = ++++)
Wells (in vitro immunogenicity) [2]: ++ (20%-49% = ++)

298 (KLQEEIPVL; listed as Homo sapiens) [compound 298]
Donors (in vitro immunogenicity) [2]: ++++ (≥70% = ++++)
Wells (in vitro immunogenicity) [2]: + (<20% = +)

308 (KLLSDPNYGV; listed as Homo sapiens) [compound 308]
Donors (in vitro immunogenicity) [2]: ++++ (≥70% = ++++)
Wells (in vitro immunogenicity) [2]: + (<20% = +)

310 (ALASVIKEL; listed as Homo sapiens) [compound 310]
Donors (in vitro immunogenicity) [2]: ++ (20%-49% = ++)
Wells (in vitro immunogenicity) [2]: + (<20% = +)

315 (KLSWDLIYL; listed as Homo sapiens) [compound 315]
Donors (in vitro immunogenicity) [2]: ++++ (≥70% = ++++)
Wells (in vitro immunogenicity) [2]: ++ (20%-49% = ++)

318 (SIIEYLPTL; listed as Homo sapiens) [compound 318]
Donors (in vitro immunogenicity) [2]: ++++ (≥70% = ++++)
Wells (in vitro immunogenicity) [2]: + (<20% = +)

320 (KIIGIMEEV; listed as Homo sapiens) [compound 320]
Donors (in vitro immunogenicity) [2]: ++++ (≥70% = ++++)
Wells (in vitro immunogenicity) [2]: ++++ (≥70% = ++++)

321 (YLPTFFLTV; listed as Homo sapiens) [compound 321]
Donors (in vitro immunogenicity) [2]: +++ (50%-69% = +++)
Wells (in vitro immunogenicity) [2]: ++ (20%-49% = ++)

322 (SLHFLILYV; listed as Homo sapiens) [compound 322]
Donors (in vitro immunogenicity) [2]: +++ (50%-69% = +++)
Wells (in vitro immunogenicity) [2]: ++ (20%-49% = ++)

323 (VVDKTLLLV; listed as Homo sapiens) [compound 323]
Donors (in vitro immunogenicity) [2]: ++++ (≥70% = ++++)
Wells (in vitro immunogenicity) [2]: +++ (50%-69% = +++)

326 (ALSGTLSGV; listed as Homo sapiens) [compound 326]
Donors (in vitro immunogenicity) [2]: ++++ (≥70% = ++++)
Wells (in vitro immunogenicity) [2]: + (<20% = +)

328 (SLSQELVGV; listed as Homo sapiens) [compound 328]
Donors (in vitro immunogenicity) [2]: ++ (20%-49% = ++)
Wells (in vitro immunogenicity) [2]: + (<20% = +)

332 (AVVEFLTSV; listed as Homo sapiens) [compound 332]
Donors (in vitro immunogenicity) [2]: ++ (20%-49% = ++)
Wells (in vitro immunogenicity) [2]: + (<20% = +)

336 (YVDPVITSI; listed as Homo sapiens) [compound 336]
Donors (in vitro immunogenicity) [2]: ++++ (≥70% = ++++)
Wells (in vitro immunogenicity) [2]: ++ (20%-49% = ++)
